The source of these data is US20080033026A1, “Antimicrobial compositions, methods and systems” (priority 2006, published 2008).

Common to all, as to format: cell-based
The test system of test [1] is Pseudomonas aeruginosa (ATCC 15442). The experiment in a line: MIC and MBC determination (broth dilution). Particulars: Mueller-Hinton Broth, 20-24 h, 37° C. How it is done: (§1) The determination of the MIC and MBC of 9-decenoic acid conformed to the procedure printed in the Federal Register, June 1994 and the present NCCLS M11-A4 protocol. Challenge organisms were prepared as follows. The MIC and MBC of 9-decenoic acid and the methyl ester of 9-decenoic acid were determined for the following challenge organisms: Staphylococcus aureus (ATCC 6538), Pseudomonas aeruginosa (ATCC 15442), Staphylococcus epidermidis (ATCC 12228), Klebsiella pneumoniae (ATCC 4352), Escherichia coli 0157:H7 (ATCC 43895) and Candida albicans (ATCC 10231). Stock cultures of each organism were transferred onto suitable culture media, Mueller-Hinton Agar (MHA) plates, and incubated for 24 hours (+2 hours) at 37° C. (+2° C.). On the day of the test, the top of at least three to five well-isolated colonies were transferred via wire loop to a tube containing 4 to 5 ml of Trypticase Soy Broth (TSB). The TSB culture was incubated for 2 to 6 hours and turbidity was adjusted with sterile saline to achieve the turbidity of a McFarland 0.5 Standard.
(§2) The concentrated 9-decenoic acid (97%) was diluted in Mueller-Hinton Broth (MHB) to yield a 25,000 ppm stock solution of the 9-decenoic acid. For each organism, 12 dilutions of the 9-decenoic acid in MHB were prepared ranging from 0.25% to 0.00049%. The test solution of the methyl ester of 9-decenoic acid was formulated in the same manner.
(§3) A 2-ml aliquot of appropriately diluted 9-decenoic acid solution or methyl ester of 9-decenoic acid was placed in each tube. Each tube was inoculated with 0.05 ml of a 1:10 dilution of one challenge organism. Tubes were incubated at 37° C. (±2° C.) for 20-24 hours and observed for microbial growth visually and by spectrophotometer. […] (±2° C.) for 20-24 hours and visually observed for growth.
(§4) Controls were run for sterility, viability and organism confirmation. It was determined that all cultures were viable and pure.
(§5) The MBC was defined as the concentration of 9-decenoic acid or the methyl ester of 9-decenoic acid that completely eradicated viable organisms from the test system.
(Broth dilution looks for growth in wells or tubes with falling amounts of substance.)

The subject of test [2] is Escherichia coli 0157:H7 (ATCC 43895). Kind of test: MIC and MBC determination (broth dilution). How it is done:
as §1, §2, §3, §4, §5

Test [3] has as its system Candida albicans (ATCC 10231). Kind of test: MIC and MBC determination (broth dilution). The procedure: as §1, §2, §3, §4, §5
The subject of test [4] is Klebsiella pneumoniae (ATCC 4352). Kind of test: MIC and MBC determination (broth dilution). Particulars: Mueller-Hinton Broth, 20-24 h, 37° C. How it is done: as §1, §2, §3, §4, §5
In test [5] the test system is Cladosporium cladosporiodes (ATCC 16022). Kind of test: MIC on Potato Dextrose Agar. The following applies: PDA agar, 25-30° C. The procedure:
(§6) The efficacy of antimicrobial compositions in accordance with aspects of the invention against the following organisms was determined as follows. The following organisms were incubated in the presence of varying concentrations of 9-decenoic acid (9-DA) on an agar surface: Aspergillus parasiticus (ATCC 56857), Trichoderma virens (ATCC 9645), Aspergillus flavus (ATCC 96045), Cladosporium cladosporiodes (ATCC 16022), Aspergillus flavus (ATCC 5917), Aspergillus oryzae (ATCC 10124), Aspergillus parasiticus (ATCC 13539), Ulocladium atrum (ATCC 52426), Candida albicans (ATCC 11651), Aspergillus niger (ATCC 11414).
(§7) Fungal spores were hydrated in 0.1% Tween 80 and then plated onto Potato Dextrose Agar (PDA) (Difco # 213400; Becton, Dickinson and Company, Sparks, Md.) and incubated at 25-30° C. for six (6) days. The spores were washed from the surface with 5 ml of 0.1% Tween 80 and enumerated.
(§8) PDA plates were prepared according to the manufacturer's instructions through sterilization. The agar was tempered to approximately 50° C. and filter sterilized. Antimicrobial compositions containing 9-DA were added by percent weight to molten autoclaved PDA media, with consideration of specific gravity (0.915 g/mL for 9-DA) and purity (98% for 9-DA). The agar was thoroughly mixed and poured into sterile petri plates and allowed to solidify.
(§9) The agar plates were inoculated with the spore solution to achieve 10^2 spores/plate. The plates were incubated at 25-30° C. in Ziploc bags with a wet paper towel to keep the moisture level high. The plates were examined for growth at 1, 2, 3, 4, 8, 11, 15, 17, 23, 29 and 31 days. The percent coverage of growth on the agar surface was recorded at each sample point.

Test [6] relates to Candida albicans (ATCC 11651). Kind of test: MIC on Potato Dextrose Agar. The following applies: PDA agar, 25-30° C. How it is done: as §6, §7, §8, §9
The subject of test [7] is Aspergillus niger (ATCC 11414). The experiment in a line: MIC on Potato Dextrose Agar. Particulars: PDA agar, 25-30° C. The procedure:
as §6, §7, §8, §9

The subject of test [8] is Aspergillus parasiticus (ATCC 13539). Kind of test: MIC on Potato Dextrose Agar. The following applies: PDA agar, 25-30° C. How it is done:
as §6, §7, §8, §9

Test [9] deals with Aspergillus parasiticus (ATCC 56857). The experiment in a line: MIC on Potato Dextrose Agar. Particulars: PDA agar, 25-30° C. The procedure: as §6, §7, §8, §9
Test [10] has as its system Aspergillus oryzae (ATCC 10124). The experiment in a line: MIC on Potato Dextrose Agar. The following applies: PDA agar, 25-30° C. The procedure:
as §6, §7, §8, §9

The subject of test [11] is Aspergillus flavus (ATCC 5917). The experiment in a line: MIC on Potato Dextrose Agar. Particulars: PDA agar, 25-30° C. How it is done: as §6, §7, §8, §9
Test [12] deals with Ulocladium atrum (ATCC 52426). The experiment in a line: MIC on Potato Dextrose Agar. Particulars: PDA agar, 25-30° C. The procedure: as §6, §7, §8, §9
Test [13] deals with Aspergillus flavus (ATCC 96045). The experiment in a line: MIC on Potato Dextrose Agar. Particulars: PDA agar, 25-30° C. The procedure: as §6, §7, §8, §9
The subject of test [14] is Trichoderma virens (ATCC 9645). The experiment in a line: MIC on Potato Dextrose Agar. The following applies: PDA agar, 25-30° C. The procedure: as §6, §7, §8, §9
Where [15] appears, read: Mueller-Hinton Broth, 20-24 h, 37° C.

Consider `C=CCCCCCCCC(=O)O` [9-decenoic acid], for which the MIC came to 0.0625% in test [1]; 0.125% in test [2] (setting [15]); 0.0625% in [3] (setting [15]); 0.0625% in [4]; 0.025% in test [5]; 0.025% in [6]. In addition, the MIC is 0.05% in test [7]; 0.05% in [8]; 0.05% in [9]; 0.05% in test [10]; 0.05% in test [11]; 0.025% in [12]. Further, the MIC in test [13] and in test [14] was 0.05% each time. The MBC was 0.125% in [2] (subculture on TSA) and 0.0625% in test [3] (subculture on TSA).
